In US6710032B1, “In situ formation of CLA” (University of Maryland, priority 1998, dated 2004):

How the values were obtained:
C57/B1/6J mice = experiment: Example 6: mouse milk fat and milk/fecal fatty acids when fed 18:1 isomer diets; format: in vivo; conditions: for Milk fat on day 10 versus day 6 of lactation: isomer about 25% of dietary fat, fed four days, creamatocrit; for Level of the test isomer in milk, % of the fat: day 10, fed the isomer diet
Text: C57/B1/6J mice fed a control diet (10 wt % fat) were switched to one of four isomer diets at day 6 of lactation after milk collection. Approximately 25% of the dietary fat (5 caloric %) during the treatment period was replaced with one of four specific isomers of oleic acid, either cis-9; cis-11; trans-9 or trans-11, other diet components were identical. The mice consumed these diets ad libitum for four days and were milked again on day 10 of lactation. Milk and fecal fatty acid composition was analyzed as fatty acid methyl esters by GC. Specific isomers were identified by relative retention times. Milk fat percentage was determined by the creamatocrit method and differences between day 6 and day 10 fat percentages were evaluated by a paired t-test.
A lactating mouse is milked after injection of oxytocin(0.2 ml of a 1 IU/ml solution) immediately prior to milking. Milking is accomplished by creating a suction through tube 26 and inserting the funnel end 28 or tube 26 onto the teat of a lactating mouse in the upside-down position. As milk is collected into the funnel, a small capillary tube (i.e. the same as that used to collect human blood samples) is manually positioned within the funnel to collect milk by capillary action. Failure to promptly collect the milk will expose the milk to evaporation thus increasing fat content of the sample.

cows = experiment: Ingestion of C18 trans 11 fats in cows, milk fat levels; conditions: in vivo

## CCCCCCCC/C=C\CCCCCCCC(=O)O [Cis-9, cis-9 18:1 fatty acid]
C57/B1/6J mice
  Milk fat on day 10 versus day 6 of lactation: identical fat values on days 6 and 10

## CCCCCC/C=C\CCCCCCCCCC(=O)O [cis-11, cis-11 18:1 fatty acid]
C57/B1/6J mice
  Level of the test isomer in milk, % of the fat: 10%
  Milk fat on day 10 versus day 6 of lactation: not statistically different

## CCCCCCCC/C=C/CCCCCCCC(=O)O [trans-9, trans-9 18:1 fatty acid]
C57/B1/6J mice
  Level of the test isomer in milk, % of the fat: 5.8%
  Milk fat on day 10 versus day 6 of lactation: statistically lower

## CCCCCC/C=C/CCCCCCCCCC(=O)O [trans-11, trans-11 18:1 fatty acid]
C57/B1/6J mice
  Level of the test isomer in milk, % of the fat: 3%
  Milk fat on day 10 versus day 6 of lactation: not statistically different
C57/B1/6J mice; listed as C18:1 t-11
  Milk fat on day 10 versus day 6 of lactation: does not reduce milk fat
cows
  Milk fat levels in cows: do not reduce milk fat levels
